Laboratory results as given in article PMC11240139, “Exploring the antitumor potential of novel quinoline derivatives via tubulin polymerization inhibition in breast cancer; design, synthesis and molecular docking” (RSC Advances, 2024).

Legend:
UACC-257 (melanoma) = experiment: NCI-60 SRB cytotoxicity screen; assay type: cell-based; settings: Homo sapiens; UACC-257, single dose 10 μM; read-out: growth inhibition (GI%)
SK-MEL-2 (melanoma) = experiment: NCI-60 SRB cytotoxicity screen; assay type: cell-based; settings: Homo sapiens; SK-MEL-2, single dose 10 μM; read-out: growth inhibition (GI%)
[1] = tested on: HOP-62 (non-small cell lung cancer); experiment: NCI-60 SRB cytotoxicity screen; assay type: cell-based; settings: Homo sapiens; HOP-62, single dose 10 μM; read-out: growth inhibition (GI%)
HCT-15 (colon cancer) = experiment: NCI-60 SRB cytotoxicity screen; assay type: cell-based; settings: Homo sapiens; HCT-15, single dose 10 μM; read-out: growth inhibition (GI%)
U251 (CNS cancer) = experiment: NCI-60 SRB cytotoxicity screen; assay type: cell-based; settings: Homo sapiens, U-251; U251, single dose 10 μM; read-out: growth inhibition (GI%)
[2] = tested on: A549/ATCC (non-small cell lung cancer); experiment: NCI-60 SRB cytotoxicity screen; assay type: cell-based; settings: Homo sapiens, single dose 10 μM, read-out: growth inhibition (GI%)
RXF 393 (renal cancer) = experiment: NCI-60 SRB cytotoxicity screen; assay type: cell-based; settings: Homo sapiens; RXF 393, single dose 10 μM; read-out: growth inhibition (GI%)
OVCAR-5 (ovarian cancer) = experiment: NCI-60 SRB cytotoxicity screen; assay type: cell-based; settings: Homo sapiens; OVCAR-5, single dose 10 μM; read-out: growth inhibition (GI%)
SF-268 (CNS cancer) = experiment: NCI-60 SRB cytotoxicity screen; assay type: cell-based; settings: Homo sapiens; SF-268, single dose 10 μM; read-out: growth inhibition (GI%)
OVCAR-3 (ovarian cancer) = experiment: NCI-60 SRB cytotoxicity screen; assay type: cell-based; settings: Homo sapiens; OVCAR-3, single dose 10 μM; read-out: growth inhibition (GI%)
[3] = tested on: MDA-MB-231/ATCC (breast cancer); experiment: NCI-60 SRB cytotoxicity screen; assay type: cell-based; settings: Homo sapiens, MDA-MB-231, read-out: growth inhibition (GI%)
SK-OV-3 (ovarian cancer) = experiment: NCI-60 SRB cytotoxicity screen; assay type: cell-based; settings: Homo sapiens; SK-OV-3, single dose 10 μM; read-out: growth inhibition (GI%)
K-562 (leukemia) = experiment: NCI-60 SRB cytotoxicity screen; assay type: cell-based; settings: Homo sapiens; K-652 [sic], single dose 10 μM; read-out: growth inhibition (GI%)
[4] = tested on: HOP-92 (non-small cell lung cancer); experiment: NCI-60 SRB cytotoxicity screen; assay type: cell-based; settings: Homo sapiens; HOP-92, single dose 10 μM; read-out: growth inhibition (GI%)
OVCAR-8 (ovarian cancer) = experiment: NCI-60 SRB cytotoxicity screen; assay type: cell-based; settings: Homo sapiens; OVCAR-8, single dose 10 μM; read-out: growth inhibition (GI%)
COLO 205 (colon cancer) = experiment: NCI-60 SRB cytotoxicity screen; assay type: cell-based; settings: Homo sapiens; COLO 205, single dose 10 μM; read-out: growth inhibition (GI%)
UO-31 (renal cancer) = experiment: NCI-60 SRB cytotoxicity screen; assay type: cell-based; settings: Homo sapiens; UO-31, single dose 10 μM; read-out: growth inhibition (GI%)
SNB-75 (CNS cancer) = experiment: NCI-60 SRB cytotoxicity screen; assay type: cell-based; settings: for inhibition at 10 µM: Homo sapiens, SNB-75, SNB-75, single dose 10 μM, read-out: growth inhibition (GI%)
T-47D (breast cancer) = experiment: NCI-60 SRB cytotoxicity screen; assay type: cell-based; settings: Homo sapiens, T47D, single dose 10 μM, read-out: growth inhibition (GI%)
PC-3 (prostate cancer) = experiment: NCI-60 SRB cytotoxicity screen; assay type: cell-based; settings: PC-3, single dose 10 μM; read-out: growth inhibition (GI%)
HL-60(TB) (leukemia) = experiment: NCI-60 SRB cytotoxicity screen; assay type: cell-based; settings: Homo sapiens, single dose 10 μM, read-out: growth inhibition (GI%)
HCT-116 (colon cancer) = experiment: NCI-60 SRB cytotoxicity screen; assay type: cell-based; settings: Homo sapiens; HCT-116, single dose 10 μM; read-out: growth inhibition (GI%)
[5] = tested on: EKVX (non-small cell lung cancer); experiment: NCI-60 SRB cytotoxicity screen; assay type: cell-based; settings: Homo sapiens, single dose 10 μM, read-out: growth inhibition (GI%)
OVCAR-4 (ovarian cancer) = experiment: NCI-60 SRB cytotoxicity screen; assay type: cell-based; settings: Homo sapiens; OVCAR-4, single dose 10 μM; read-out: growth inhibition (GI%)
CCRF-CEM (leukemia) = experiment: NCI-60 SRB cytotoxicity screen; assay type: cell-based; settings: Homo sapiens, single dose 10 μM, read-out: growth inhibition (GI%)
HS 578T (breast cancer) = experiment: NCI-60 SRB cytotoxicity screen; assay type: cell-based; settings: Homo sapiens, single dose 10 μM, read-out: growth inhibition (GI%)
SF-295 (CNS cancer) = experiment: NCI-60 SRB cytotoxicity screen; assay type: cell-based; settings: Homo sapiens; SF-295, single dose 10 μM; read-out: growth inhibition (GI%)
[6] = tested on: NCI-H322M (non-small cell lung cancer); experiment: NCI-60 SRB cytotoxicity screen; assay type: cell-based; settings: Homo sapiens, single dose 10 μM, read-out: growth inhibition (GI%)
[7] = tested on: NCI-H226 (non-small cell lung cancer); experiment: NCI-60 SRB cytotoxicity screen; assay type: cell-based; settings: NCI-H226, single dose 10 μM; for inhibition at 10 µM: Homo sapiens, read-out: growth inhibition (GI%)
UACC-62 (melanoma) = experiment: NCI-60 SRB cytotoxicity screen; assay type: cell-based; settings: Homo sapiens; UACC-62, single dose 10 μM; read-out: growth inhibition (GI%)
DU-145 (prostate cancer) = experiment: NCI-60 SRB cytotoxicity screen; assay type: cell-based; settings: Homo sapiens; DU-145, single dose 10 μM; read-out: growth inhibition (GI%)
HCC-2998 (colon cancer) = experiment: NCI-60 SRB cytotoxicity screen; assay type: cell-based; settings: Homo sapiens; HCC-2998, single dose 10 μM; read-out: growth inhibition (GI%)
RPMI-8226 (leukemia) = experiment: NCI-60 SRB cytotoxicity screen; assay type: cell-based; settings: Homo sapiens; RPMI-8226, single dose 10 μM; read-out: growth inhibition (GI%)

SMILES	inhibition at 10 µM (UACC-257 (melanoma))	inhibition at 10 µM (SK-MEL-2 (melanoma))	inhibition at 10 µM [1]	inhibition at 10 µM (HCT-15 (colon cancer))	inhibition at 10 µM (U251 (CNS cancer))	inhibition at 10 µM [2]	inhibition at 10 µM (RXF 393 (renal cancer))	inhibition at 10 µM (OVCAR-5 (ovarian cancer))	inhibition at 10 µM (SF-268 (CNS cancer))	inhibition at 10 µM (OVCAR-3 (ovarian cancer))	inhibition at 10 µM [3]	inhibition at 10 µM (SK-OV-3 (ovarian cancer))	inhibition at 10 µM (K-562 (leukemia))	inhibition at 10 µM [4]	inhibition at 10 µM (OVCAR-8 (ovarian cancer))	inhibition at 10 µM (COLO 205 (colon cancer))	inhibition at 10 µM (UO-31 (renal cancer))	inhibition at 10 µM (SNB-75 (CNS cancer))	inhibition at 10 µM (T-47D (breast cancer))	inhibition at 10 µM (PC-3 (prostate cancer))	also measured
CCc1cccc2cc(C=CC(=O)c3ccc(OC)c(OC)c3)c(Cl)nc12 [Compound 3b, 3-(2-Chloro-8-ethylquinolin-3-yl)-1-(3,4-dimethoxyphenyl)prop-2-en-1-one]	< 10%	< 10%	< 10%	20.4%	65.2%	43.5%	22.1%	12.5%	< 10%	31.7%	29.3%	< 10%	55.7%	27.4%	57.8%	22.4%	41.8%	> 100%	57.9%	32%	inhibition at 10 µM (HL-60(TB) (leukemia)): 61%; inhibition at 10 µM (HCT-116 (colon cancer)): 62.8%; inhibition at 10 µM [5]: < 10%; inhibition at 10 µM (OVCAR-4 (ovarian cancer)): 42.3%; inhibition at 10 µM (CCRF-CEM (leukemia)): 65%; inhibition at 10 µM (HS 578T (breast cancer)): < 10%; inhibition at 10 µM (SF-295 (CNS cancer)): 21.8%; inhibition at 10 µM [6]: 22.4%; inhibition at 10 µM [7]: > 100%; growth inhibition (GI%) [7]: lethal effect; melting point: 135 to 137 °C; inhibition at 10 µM (UACC-62 (melanoma)): 35.9%; inhibition at 10 µM (DU-145 (prostate cancer)): 15.8%; inhibition at 10 µM (HCC-2998 (colon cancer)): 17.7%; inhibition at 10 µM (RPMI-8226 (leukemia)): 56.2%
CCc1cccc2cc(C=CC(=O)c3ccc(OC)cc3)c(Cl)nc12 [Compound 3a, 3-(2-Chloro-8-ethylquinolin-3-yl)-1-(4-methoxyphenyl)prop-2-en-1-one]	< 10%	< 10%	< 10%	< 10%	17.9%	< 10%	23.8%	< 10%	< 10%	< 10%	< 10%	< 10%	< 10%	27.3%	< 10%	< 10%	< 10%	< 10%	44%	< 10%	inhibition at 10 µM (HL-60(TB) (leukemia)): 45.8%; inhibition at 10 µM (HCT-116 (colon cancer)): < 10%; inhibition at 10 µM [5]: < 10%; inhibition at 10 µM (OVCAR-4 (ovarian cancer)): 13.5%; inhibition at 10 µM (CCRF-CEM (leukemia)): 26.9%; inhibition at 10 µM (HS 578T (breast cancer)): < 10%; inhibition at 10 µM (SF-295 (CNS cancer)): < 10%; inhibition at 10 µM [6]: < 10%; inhibition at 10 µM [7]: 79.9%; melting point: 138 to 140 °C; inhibition at 10 µM (UACC-62 (melanoma)): 17.1%; inhibition at 10 µM (DU-145 (prostate cancer)): < 10%; inhibition at 10 µM (HCC-2998 (colon cancer)): < 10%; inhibition at 10 µM (RPMI-8226 (leukemia)): 22.1%
CCc1cccc2cc(-c3cc(-c4ccc(OC)cc4)[nH]c(=O)c3C#N)c(Cl)nc12 [Compound 4a, 4-(2-Chloro-8-ethylquinolin-3-yl)-6-(4-methoxyphenyl)-2-oxo-1,2-dihydropyridine-3-carbonitrile]	< 10%	< 10%	< 10%	< 10%	< 10%	< 10%	< 10%	< 10%	21.4%	< 10%	10%	< 10%	19.9%	29.8%	< 10%	< 10%	< 10%	54.7%	17.1%	< 10%	growth inhibition (GI%) (SNB-75 (CNS cancer); SNB-75, single dose 10 μM): 45.69%; inhibition at 10 µM (HL-60(TB) (leukemia)): < 10%; inhibition at 10 µM (HCT-116 (colon cancer)): < 10%; inhibition at 10 µM [5]: 12.3%; inhibition at 10 µM (OVCAR-4 (ovarian cancer)): 21.9%; inhibition at 10 µM (CCRF-CEM (leukemia)): < 10%; inhibition at 10 µM (HS 578T (breast cancer)): 14.9%; inhibition at 10 µM (SF-295 (CNS cancer)): 16.7%; inhibition at 10 µM [6]: < 10%; inhibition at 10 µM [7]: 15.4%; melting point: 270 to 272 °C; inhibition at 10 µM (UACC-62 (melanoma)): < 10%; inhibition at 10 µM (DU-145 (prostate cancer)): < 10%; inhibition at 10 µM (HCC-2998 (colon cancer)): < 10%; inhibition at 10 µM (RPMI-8226 (leukemia)): < 10%
CCc1cccc2cc(-c3cc(-c4cc(OC)c(OC)c(OC)c4)[nH]c(=S)c3C#N)c(Cl)nc12 [Compound 5c, 4-(2-Chloro-8-ethylquinolin-3-yl)-2-thioxo-6-(3,4,5-trimethoxyphenyl)-1,2-dihydropyridine-3-carbonitrile]	20.1%	33%	10.6%	29%	31%	38.1%	37.3%	< 10%	31.7%	16.9%	52.5%	< 10%	33.9%	77.4%	36.7%	12.7%	45.2%	< 10%	60.6%	48.9%	inhibition at 10 µM (HL-60(TB) (leukemia)): 51.8%; inhibition at 10 µM (HCT-116 (colon cancer)): 27.1%; inhibition at 10 µM [5]: 34.9%; inhibition at 10 µM (OVCAR-4 (ovarian cancer)): 41.6%; inhibition at 10 µM (CCRF-CEM (leukemia)): 57.6%; inhibition at 10 µM (HS 578T (breast cancer)): 32.7%; inhibition at 10 µM (SF-295 (CNS cancer)): 31%; inhibition at 10 µM [6]: 34%; inhibition at 10 µM [7]: 63.3%; melting point: 279 to 281 °C; inhibition at 10 µM (UACC-62 (melanoma)): 33.5%; inhibition at 10 µM (DU-145 (prostate cancer)): 32.3%; inhibition at 10 µM (HCC-2998 (colon cancer)): 33%; inhibition at 10 µM (RPMI-8226 (leukemia)): 63.1%
